Experimental data from patent US9913836B2, “Anticholinergic neuroprotective composition and methods” (priority 2012, dated 2018).
Where “and” joins values, the source holds several entries; their conditions need not be identical. Identical values can stand only once. Entries after “also recorded” stand apart in the source; their conditions may differ.

Key:
[1] = solifenacin 10 mg versus placebo
Method: Safety and tolerability were evaluated based on subject reports, physician observations and examinations, and the performance of standard laboratory tests.

[2] = tested on: Tg2576 mouse model of AD; details: in vivo; cited from earlier work
[3] = in vivo; cited from earlier work
[4] = tested on: acetylcholinesterase / butyrylcholinesterase; details: cited from earlier work
[5] = Single-blind crossover study in healthy volunteers: maximum tolerated dose and adverse events of rivastigmine given with placebo or active trospium; type: in vivo, human
Method: (§1) In this single-blind crossover study, healthy volunteers were hospitalized at a Phase I Center (Forenap, Rouffach, France) for the once daily oral administration of ascending doses of rivastigmine hydrogen tartrate (“rivastigmine”), (3 mg to a possible maximum of 24 mg in 3 mg increments as tolerated) together with placebo trospium and then with ascending amounts of rivastigmine (3 mg to a possible maximum of 24 mg as tolerated) together with active trospium. Placebo trospium or active trospium (at a fixed dose of 40 mg per day) were given orally once daily 3 hours before rivastigmine administration. Venous blood was collected for the measurement of plasma drug levels at their nominal peaks (approximately 1 hour after rivastigmine administration). Subjects were monitored clinically for 4 hours after drug administration or until all adverse events had subsided.

[6] = open-label, 1.5 mg up to 6 mg twice daily, 26 weeks; no worsening of motor function; cited from earlier work
[7] = Birks 2009; Forette 1999; cited from earlier work
[8] = cited from earlier work
[9] = Same study: peak plasma levels of rivastigmine given with placebo or active trospium; type: in vivo, human
Method: as §1

[10] = subject (c), dose above tolerated dose

COc1cc2c(cc1OC)C(=O)C(CC1CCN(Cc3ccccc3)CC1)C2 (racemic) [donepezil, (±)-2,3-dihydro-5,6-dimethoxy-2-[[1-(phenylmethyl)-4-piperidinyl]methyl]-1H-inden-1-one]
Increase of peak donepezil levels with combined therapy [1]: ~2.6 fold | A-beta deposition in Tg2576 mice [2]: did not affect | Effect on A-beta and synaptic density parameters at lower doses [2]: not effective | Learning and memory functions in Tg2576 mice [2]: improved | Synaptic density in the molecular layer of the dentate gyrus [2]: significantly increased | Adverse events at the tolerated donepezil dose given with placebo solifenacin (individual subjects, donepezil 5 mg (a, b, c, f), 15 mg (d), 30 mg (e)): no adverse events; also recorded: severe abdominal pain, weakness, moderate anorexia, sweating and dry mouth; also recorded: moderate weakness, mild dizziness and moderate hypersalivation | Adverse events at the tolerated donepezil dose given with 10 mg of solifenacin (individual subjects, donepezil 10 mg (a, f), 15 mg (b, d), 5 mg (c), 40 mg (e)): moderate nausea and moderate dizziness; also recorded: no adverse events; also recorded: moderate abdominal pain and severe headache | Subjects in whom solifenacin co-treatment enabled substantially higher daily doses of donepezil (solifenacin 10 mg versus placebo): 4 out of 6 | Adverse events with 10 mg of donepezil and placebo solifenacin [10]: severe anorexia, nausea, retching, vomiting, weakness, headache, moderate diarrhea, and mild sweating, dizziness, somnolence, hypersalivation, muscular cramps | Adverse events with 10 mg of donepezil given with 10 mg of solifenacin [10]: severe nausea and retching | Increase of the donepezil MTD after donepezil/solifenacin combination (the other subjects (a), (b), (e), (f)): 33-300%

O=C(O[C@H]1C[C@H]2CC[C@@H](C1)[N+]21CCCC1)C(O)(c1ccccc1)c1ccccc1 [Trospium, 3-(2-hydroxy-2,2-diphenylacetoxy)-spiro[bicyclo[3.2.1]octane-8,1′-pyrrolidin]-1′-ium]
Average plasma half-life of the absorbed amount [3]: about 18 hours

CCN(C)C(=O)Oc1cccc([C@H](C)N(C)C)c1 [rivastigmine, (S)—N-Ethyl-N-methyl-3-[1-(dimethylamino)ethyl]-phenyl carbamate]
Affinity / selectivity for acetylcholinesterase versus butyrylcholinesterase [4]: inhibits both enzymes with similar affinity | Tolerated dose of rivastigmine given with placebo trospium ([5]; individual healthy volunteers (a)-(c), once daily oral ascending doses 3 to 24 mg, placebo trospium 3 hours before): 9 mg and 15 mg | Tolerated dose of rivastigmine given with 40 mg of trospium ([5]; individual healthy volunteers (a)-(c), once daily oral ascending doses 3 to 24 mg, trospium 40 mg oral 3 hours before): 24 mg and 18 mg | Adverse events at the tolerated rivastigmine dose given with placebo trospium ([5]; individual subjects, rivastigmine 9 mg (a), 15 mg (b, c)): moderate nausea and mild somnolence; also recorded: mild dry mouth | Adverse events at the tolerated rivastigmine dose given with 40 mg of trospium ([5]; individual subjects, rivastigmine 24 mg (a), 18 mg (b, c)): mild nausea as well as abdominal pain, headache and respiratory difficulty in addition to moderate anorexia; also recorded: mild dry mouth and moderate urinary difficulty | Tolerated rivastigmine dose with 40 mg trospium as multiple of the maximum recommended single oral dose (6 mg) ([5]; subject (a): 4, subjects (b) and (c): 3): 4 times and 3 times | Cognitive functions in PD patients with dementia [6]: may improve the cognitive functions | Reported average maximum tolerated single oral dose of rivastigmine [7]: about 4.5 mg | Benefits on cognitive and global measures relevant to dementia ([8]; patients with dementias of the Alzheimer type): small, but statistically significant, benefits | Cognitive improvement in patients with Alzheimer's disease on doubling the dose ([8]; skin patches instead of immediate release tablets, without increasing side effects): significantly increased the amount of cognitive improvement | Average peak plasma rivastigmine with trospium relative to without trospium ([9]; 88 ng/ml versus 30.7 ng/ml): 2.9 times | Average peak plasma rivastigmine with trospium relative to literature value ([9]; 88 ng/ml versus about 12 ng/ml reported): ~7.3 times | Average peak plasma concentration of rivastigmine given without trospium ([9]; average of 2 subjects): 30.7 ng/mL | Peak plasma (maximum tolerated) concentration of rivastigmine given with placebo trospium ([9]; venous blood about 1 hour after 15 mg rivastigmine, individual subjects (b), (c)): 53 ng/mL and 8.3 ng/mL | Peak plasma (maximum tolerated) concentration of rivastigmine given with 40 mg of trospium ([9]; venous blood about 1 hour after rivastigmine 24 mg (a) or 18 mg (b, c), individual subjects): 39 ng/mL and 94 ng/mL and 131 ng/mL
